From US11771086B2, “Pest control composition including novel iminopyridine derivative” (priority 2012, dated 2023) come the findings set out here.

Type in all cases: in vivo
The subject of one data set is Plutella xylostella. In words: Reference Test Example 1 Pest control test of Plutella xylostella (foliar treatment, single agent). Details: Plutella xylostella (Reference Test Example 1), mortality of larvae: concentration or dose not given beside the values. To be noted: foliar treatment, single agent. The source says: After an air drying process, second instar larvae were released thereto. […] Test in duplicate.

A further data set relates to Aphis gossypii. Kind of data set: Reference Test Example 3 Pest control test of Aphis gossypii (foliar treatment, single agent). Also on record: Aphis gossypii (Reference Test Example 3), mortality of larvae: concentration or dose not given beside the values. To be noted: foliar treatment, single agent.
The next data set has as its system Laodelphax striatella. In words: Reference Test Example 18 Pest control test of Laodelphax striatella (wheat seedling root treatment). To be noted: wheat seedling roots treated; four days after release; 20 μg/seedling. On the procedure: The drug was absorbed from the roots for 72 hours, and then ten second instar larvae of Laodelphax striatella were each released thereto. […] The test was performed in duplicate.

Description for Aphis gossypii: After an air drying process, first instar larvae were released thereto. Thereafter, the larvae were left to stand in a thermostatic chamber (16 hours of light period-8 hours of dark period) at 25° C. […] Test in duplicate. Mortality (%)={number of dead larvae/(number of survived larvae+number of dead larvae)}×100

As to `O=C(N=c1ccc(F)cn1Cc1cnc(Cl)s1)C(F)(F)F` [Compound P-219], the “Plutella xylostella (Reference Test Example 1), mortality of larvae” value (from here on “Plutella xylostella”) in the data set on Plutella xylostella was found to be 80%. The “Aphis gossypii (Reference Test Example 3), mortality of larvae” value (“Aphis gossypii” below) with Aphis gossypii is 85%.

With `O=C(N=c1ccc(Cl)cn1Cc1ccc(Cl)nc1)C(F)(F)F` [Compound P-215], in the data set on Laodelphax striatella, the “Laodelphax striatella (Reference Test Example 18), mortality of larvae” value (“Laodelphax striatella” for short) came to 75%. For the same molecule, in the data set with Plutella xylostella, the “Plutella xylostella” value stood at 100%. In addition, the “Aphis gossypii” value in the data set with Aphis gossypii worked out at 80%.

Regarding `C/N=C(/N=c1\ccccn1Cc1ccc(Cl)nc1)C(F)(F)F` [Compound 1-42, N-[1-((6-chloropyridin-3-yl)methyl)pyridin-2(1H)-ylidene]-2,2,2-trifluoro-N′-methylacetimidamide], the “Laodelphax striatella” value in the data set on Laodelphax striatella was 100%. Also, the “Plutella xylostella” value with Plutella xylostella was determined as 100%. Moreover, the “Aphis gossypii” value with Aphis gossypii was 100%.

As for `O=C(N=c1ccccn1Cc1ccc(Cl)nc1)C(Br)Br` [Compound P-241], the “Laodelphax striatella” value with Laodelphax striatella was found to be 100%. The “Aphis gossypii” value with Aphis gossypii worked out at 100%.

Take `O=C(N=c1ccccn1Cc1ccc(Cl)nc1)C(Cl)Cl` [Compound P-234]: in the data set with Laodelphax striatella, the “Laodelphax striatella” value stood at 100%. For the same molecule, the “Plutella xylostella” value with Plutella xylostella came out at 100%. Besides, in the data set on Aphis gossypii, the “Aphis gossypii” value worked out at 100%.

Turning to `O=C(N=c1ccccn1Cc1ccc(F)nc1)C(F)(F)Cl` [Compound 3-4], the “Laodelphax striatella” value in the data set on Laodelphax striatella turned out to be 100%. The “Plutella xylostella” value with Plutella xylostella turned out to be 100%. The “Aphis gossypii” value in the data set on Aphis gossypii is reported as 100%.

As for `O=C(N=c1ccccn1Cc1cnc(Cl)nc1)C(F)F` [Compound 6-3], the “Laodelphax striatella” value in the data set with Laodelphax striatella is recorded as 100%. The “Plutella xylostella” value with Plutella xylostella was 80%.

Regarding `O=C(N=c1ccccn1Cc1ccc(Br)nc1)C(F)F` [Compound 4-3], the “Laodelphax striatella” value in the data set with Laodelphax striatella is 100%. The “Plutella xylostella” value in the data set on Plutella xylostella is recorded as 100%.

On to `O=C(N=c1ccccn1Cc1ccc(Cl)nc1)C(Cl)Br` (stereo not drawn) [Compound P-240], for which the “Laodelphax striatella” value in the data set on Laodelphax striatella turned out to be 100%. Moreover, in the data set with Aphis gossypii, the “Aphis gossypii” value is listed as 100%.

As to `O=C(N=c1ccccn1Cc1cnc(Cl)nc1)C(F)(F)Cl` [Compound 6-4], in the data set on Laodelphax striatella, the “Laodelphax striatella” value came to 100%. Further, in the data set with Plutella xylostella, the “Plutella xylostella” value is given as 90%. Moreover, the “Aphis gossypii” value with Aphis gossypii is 100%.

For the molecule `O=C(N=c1ccccn1Cc1ccc(Cl)cc1)C(F)(F)F` [Compound P-225], the “Aphis gossypii” value in the data set on Aphis gossypii was found to be 90%.

As for `Cc1ccc(=NC(=O)C(F)(F)F)n(Cc2ccc(Cl)nc2)c1` [Compound P-223], the “Laodelphax striatella” value with Laodelphax striatella is reported as 75%. In the data set on Aphis gossypii, the “Aphis gossypii” value turned out to be 75%.

On to `N#Cc1cccn(Cc2ccc(Cl)nc2)c1=NC(=O)C(F)(F)F` [Compound 102-2], for which the “Laodelphax striatella” value in the data set with Laodelphax striatella amounted to 100%. In addition, in the data set on Plutella xylostella, the “Plutella xylostella” value was 10%. Moreover, the “Aphis gossypii” value in the data set on Aphis gossypii is reported as 100%.

On to `Cc1ccn(Cc2ccc(Cl)nc2)c(=NC(=O)C(F)(F)F)c1` [Compound P-222], for which the “Laodelphax striatella” value in the data set with Laodelphax striatella is reported as 100%. In addition, in the data set with Aphis gossypii, the “Aphis gossypii” value was 100%.

Take `FC(F)(F)C(=S)N=c1ccccn1Cc1ccc(Br)nc1` [Compound 4-20]: the “Laodelphax striatella” value with Laodelphax striatella stood at 100%. Moreover, the “Plutella xylostella” value in the data set with Plutella xylostella is reported as 100%. Besides, the “Aphis gossypii” value in the data set with Aphis gossypii turned out to be 100%.

On to `FC(F)C(=S)N=c1ccccn1Cc1ccc(Cl)nc1` [Compound 1-21], for which the “Laodelphax striatella” value in the data set on Laodelphax striatella is reported as 100%. For the same molecule, in the data set on Plutella xylostella, the “Plutella xylostella” value is recorded as 80%. In addition, in the data set on Aphis gossypii, the “Aphis gossypii” value worked out at 100%.

Regarding `O=C(N=c1ccccn1Cc1cnc(Cl)c(F)c1)C(F)(F)F` [Compound P-227], in the data set with Laodelphax striatella, the “Laodelphax striatella” value was found to be 100%. Moreover, in the data set on Plutella xylostella, the “Plutella xylostella” value is reported as 100%. Also, the “Aphis gossypii” value with Aphis gossypii stood at 100%.

Consider `O=C(N=c1ccccn1Cc1ccc(C(F)(F)F)nc1)C(F)(F)F` [Compound P-228], for which the “Laodelphax striatella” value with Laodelphax striatella came out at 100%. Moreover, in the data set on Plutella xylostella, the “Plutella xylostella” value was determined as 30%. Besides, in the data set with Aphis gossypii, the “Aphis gossypii” value was 95%.

Turning to `O=C(N=c1ccccn1Cc1ccc(Cl)nc1)C(Cl)(Cl)Cl` [Compound P-235], the “Laodelphax striatella” value in the data set on Laodelphax striatella came to 75%. Besides, the “Plutella xylostella” value in the data set on Plutella xylostella turned out to be 100%. In the data set on Aphis gossypii, the “Aphis gossypii” value is 95%.

Regarding `O=C(N=c1ccccn1Cc1cccnc1)C(F)(F)F` [Compound P-226], the “Plutella xylostella” value with Plutella xylostella is 60%. Moreover, in the data set on Aphis gossypii, the “Aphis gossypii” value is recorded as 100%.

For the molecule `O=C(N=c1ccccn1Cc1ccc(Br)nc1)C(F)(F)Cl` [Compound 4-4], the “Laodelphax striatella” value with Laodelphax striatella was found to be 100%. The “Plutella xylostella” value with Plutella xylostella stood at 100%.

On to `FC(F)(Cl)C(=S)N=c1ccccn1Cc1ccc(Cl)nc1` [Compound 1-22], for which the “Laodelphax striatella” value in the data set with Laodelphax striatella is on record as 100%. Besides, the “Plutella xylostella” value with Plutella xylostella was determined as 100%.

With `O=C(CBr)N=c1ccccn1Cc1ccc(Cl)nc1` [Compound P-244], the “Laodelphax striatella” value in the data set with Laodelphax striatella turned out to be 100%. Besides, the “Aphis gossypii” value in the data set with Aphis gossypii is on record as 100%.

For the molecule `O=C(N=c1cc(F)ccn1Cc1ccc(Cl)nc1)C(F)(F)F` [Compound P-232], the “Aphis gossypii” value with Aphis gossypii is reported as 80%.

Consider `CSCCN=C(N=c1ccccn1Cc1ccc(Cl)nc1)C(F)(F)F` [Compound 1-150], for which the “Laodelphax striatella” value in the data set on Laodelphax striatella was 80%. In the data set on Plutella xylostella, the “Plutella xylostella” value turned out to be 100%. For the same molecule, the “Aphis gossypii” value in the data set with Aphis gossypii amounted to 100%.

For the molecule `Fc1ccc(Cn2ccccc2=NC(=S)C(F)(F)F)cn1` [Compound 3-20], the “Laodelphax striatella” value with Laodelphax striatella is recorded as 80%. In addition, the “Plutella xylostella” value in the data set with Plutella xylostella came to 55%. Moreover, the “Aphis gossypii” value in the data set with Aphis gossypii is 100%.

Regarding `O=C(N=c1ccccn1Cc1ccc(Cl)nc1)C(F)F` [Compound P-238], the “Laodelphax striatella” value with Laodelphax striatella is 100%. The “Plutella xylostella” value in the data set on Plutella xylostella came to 100%. In addition, the “Aphis gossypii” value in the data set with Aphis gossypii is reported as 100%.

With `O=C(N=c1ccccn1Cc1cnc(Cl)nc1)C(F)(F)F` [Compound P-243], the “Laodelphax striatella” value with Laodelphax striatella is on record as 100%. For the same molecule, the “Plutella xylostella” value in the data set with Plutella xylostella is 100%. Besides, in the data set on Aphis gossypii, the “Aphis gossypii” value worked out at 100%.

In the case of `O=C(N=c1ccccn1Cc1ccc(F)nc1)C(F)(F)C(F)(F)F` [Compound 3-5], in the data set with Laodelphax striatella, the “Laodelphax striatella” value turned out to be 80%. The “Plutella xylostella” value in the data set with Plutella xylostella is 100%. In the data set with Aphis gossypii, the “Aphis gossypii” value was determined as 55%.

`O=C(N=c1ccccn1Cc1cnc(Cl)c(F)c1)C(F)(F)Cl` [Compound 5-4]: in the data set on Laodelphax striatella, the “Laodelphax striatella” value is given as 100%. Also, in the data set on Plutella xylostella, the “Plutella xylostella” value turned out to be 100%.

On to `O=C(N=c1ccccn1Cc1cnc(Cl)s1)C(F)(F)F` [Compound P-213], for which, in the data set with Laodelphax striatella, the “Laodelphax striatella” value came to 100%. For the same molecule, the “Plutella xylostella” value in the data set with Plutella xylostella was 100%. Besides, in the data set on Aphis gossypii, the “Aphis gossypii” value is 100%.

Turning to `O=C(N=c1ccccn1Cc1ccc(Br)nc1)C(F)(F)C(F)(F)F` [Compound 4-5], in the data set with Laodelphax striatella, the “Laodelphax striatella” value came to 100%. Moreover, the “Plutella xylostella” value in the data set with Plutella xylostella is on record as 100%. The “Aphis gossypii” value with Aphis gossypii was 100%.

On to `O=C(N=c1ccccn1Cc1cnc(Cl)c(Cl)c1)C(F)(F)F` [Compound P-230], for which, in the data set with Plutella xylostella, the “Plutella xylostella” value was 100%. Moreover, the “Aphis gossypii” value in the data set with Aphis gossypii was 100%.

`O=C(N=c1ccccn1Cc1ccc(Cl)nc1)C(F)(F)F` [Compound P-212]: the “Laodelphax striatella” value in the data set on Laodelphax striatella worked out at 100%. In the data set with Plutella xylostella, the “Plutella xylostella” value is on record as 100%. Further, the “Aphis gossypii” value with Aphis gossypii came to 100%.

With `Fc1cc(Cn2ccccc2=NC(=S)C(F)(F)F)cnc1Cl` [Compound 5-20], the “Laodelphax striatella” value with Laodelphax striatella was 100%. Moreover, in the data set with Plutella xylostella, the “Plutella xylostella” value is 100%.

With `O=C(N=c1ccc(Cl)cn1Cc1cnc(Cl)s1)C(F)(F)F` [Compound P-218], the “Plutella xylostella” value with Plutella xylostella amounted to 100%. The “Aphis gossypii” value in the data set with Aphis gossypii is 60%.

For the molecule `O=C(N=c1ccccn1Cc1cnc(Cl)c(F)c1)C(F)F` [Compound 5-3], the “Laodelphax striatella” value with Laodelphax striatella is recorded as 100%. For the same molecule, the “Plutella xylostella” value in the data set on Plutella xylostella was determined as 100%.

With `O=C(N=c1c(F)cccn1Cc1ccc(Cl)nc1)C(F)(F)F` [Compound P-233], in the data set on Laodelphax striatella, the “Laodelphax striatella” value is on record as 75%. In the data set on Aphis gossypii, the “Aphis gossypii” value worked out at 100%.

For the molecule `O=C(CCl)N=c1ccccn1Cc1ccc(Cl)nc1` [Compound P-236], the “Aphis gossypii” value in the data set with Aphis gossypii worked out at 100%.

Take `FC(F)(F)C(F)(F)C(=S)N=c1ccccn1Cc1ccc(Cl)nc1` [Compound 1-23]: in the data set on Laodelphax striatella, the “Laodelphax striatella” value came to 100%. Besides, the “Plutella xylostella” value in the data set on Plutella xylostella came out at 100%.
